PubChem BioAssay (NCI)
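Values below derive from 48-hour exposures of cells grown in 96-well plates, with endpoints linearly interpolated between the two concentrations bracketing the appropriate inhibition level. Here, GI50 denotes the concentration required for 50% inhibition of growth. At the TGI there is no net growth.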

What was measured:
Assay in all cases: growth of human tumour cells (NCI), 48 h; in the data active means GI50 below about 0.43 µM; inactive means the rest
RPMI-8226 leukemia = system: RPMI-8226 leukemia
DU-145 prostate = system: DU-145 prostate
UO-31 renal = system: UO-31 renal
SNB-75 CNS = system: SNB-75 CNS
HL-60(TB) leukemia = system: HL-60(TB) leukemia
SF-295 CNS = system: SF-295 CNS
HOP-92 NSCLC = system: HOP-92 NSCLC
OVCAR-5 ovarian = system: OVCAR-5 ovarian
OVCAR-3 ovarian = system: OVCAR-3 ovarian
NCI-H460 lung = system: NCI-H460 lung
RXF 393 renal = system: RXF 393 renal
SF-268 CNS = system: SF-268 CNS
MCF7 breast = system: MCF7 breast
MOLT-4 leukemia = system: MOLT-4 leukemia
M14 melanoma = system: M14 melanoma
COLO 205 colon = system: COLO 205 colon
SK-MEL-28 melanoma = system: SK-MEL-28 melanoma
SF-539 CNS = system: SF-539 CNS
UACC-257 melanoma = system: UACC-257 melanoma
NCI/ADR-RES ovarian = system: NCI/ADR-RES ovarian
IGROV1 ovarian = system: IGROV1 ovarian
LOX IMVI melanoma = system: LOX IMVI melanoma
HS 578T breast = system: HS 578T breast
HCC-2998 colon = system: HCC-2998 colon
SW-620 colon = system: SW-620 colon
HOP-62 NSCLC = system: HOP-62 NSCLC
CCRF-CEM leukemia = system: CCRF-CEM leukemia
SN12C renal = system: SN12C renal
KM12 colon = system: KM12 colon
SK-MEL-2 melanoma = system: SK-MEL-2 melanoma
BT-549 breast = system: BT-549 breast
TK-10 renal = system: TK-10 renal
SNB-19 CNS = system: SNB-19 CNS
CAKI-1 renal = system: CAKI-1 renal
HT29 colon = system: HT29 colon
K-562 leukemia = system: K-562 leukemia
OVCAR-8 ovarian = system: OVCAR-8 ovarian
HCT-116 colon = system: HCT-116 colon
T-47D breast = system: T-47D breast
786-0 renal = system: 786-0 renal
OVCAR-4 ovarian = system: OVCAR-4 ovarian
NCI-H226 lung = system: NCI-H226 lung
NCI-H23 lung = system: NCI-H23 lung
SK-MEL-5 melanoma = system: SK-MEL-5 melanoma
NCI-H522 lung = system: NCI-H522 lung
SK-OV-3 ovarian = system: SK-OV-3 ovarian
MDA-MB-435 = system: MDA-MB-435
MALME-3M melanoma = system: MALME-3M melanoma
MDA-MB-231 breast = system: MDA-MB-231 breast
ACHN renal = system: ACHN renal
UACC-62 melanoma = system: UACC-62 melanoma
A549 NSCLC = system: A549 NSCLC
U251 CNS = system: U251 CNS
PC-3 prostate = system: PC-3 prostate
EKVX NSCLC = system: EKVX NSCLC
HCT-15 colon = system: HCT-15 colon
A498 renal = system: A498 renal

OC(c1cc2cc(Cl)ccc2c2cc(C(F)(F)F)ccc12)C1CCCCN1 (stereo unspecified)
2.94 µM: TGI (OVCAR-5 ovarian)
3.37 µM: TGI (DU-145 prostate)
3.06 µM: TGI (UO-31 renal)
inactive: GI50 (RPMI-8226 leukemia) 2.21 µM | GI50 (DU-145 prostate) 1.9 µM | GI50 (UO-31 renal) 1.59 µM | GI50 (SNB-75 CNS) 1.69 µM | GI50 (HL-60(TB) leukemia) 1.92 µM | GI50 (SF-295 CNS) 1.96 µM | GI50 (HOP-92 NSCLC) 1.42 µM | GI50 (OVCAR-5 ovarian) 1.48 µM
2.97 µM: TGI (HOP-92 NSCLC)
3.69 µM: TGI (SF-295 CNS)
4.92 µM: TGI (RPMI-8226 leukemia)
3.14 µM: TGI (SNB-75 CNS)
3.72 µM: TGI (HL-60(TB) leukemia)

COc1cc(/C=C2\CCCCC3=C2N=C2SC(C)=CN2C3c2cc(OC)c(OC)c(OC)c2)cc(OC)c1OC (stereo unspecified)
> 100 µM: TGI (OVCAR-3 ovarian) | TGI (RPMI-8226 leukemia) | TGI (NCI-H460 lung) | TGI (DU-145 prostate) | TGI (RXF 393 renal) | TGI (SF-268 CNS) | TGI (UO-31 renal) | TGI (MCF7 breast) | TGI (M14 melanoma) | TGI (COLO 205 colon) | TGI (SK-MEL-28 melanoma) | TGI (SF-539 CNS) | TGI (UACC-257 melanoma) | TGI (NCI/ADR-RES ovarian) | TGI (IGROV1 ovarian) | TGI (LOX IMVI melanoma) | TGI (HS 578T breast) | TGI (HCC-2998 colon) | TGI (SW-620 colon) | TGI (HOP-62 NSCLC) | TGI (CCRF-CEM leukemia) | TGI (SN12C renal) | TGI (KM12 colon) | TGI (SK-MEL-2 melanoma) | TGI (BT-549 breast) | TGI (TK-10 renal) | TGI (SNB-19 CNS) | TGI (CAKI-1 renal) | TGI (HL-60(TB) leukemia) | TGI (HT29 colon) | TGI (K-562 leukemia) | TGI (OVCAR-8 ovarian) | TGI (HCT-116 colon) | TGI (T-47D breast) | TGI (786-0 renal) | TGI (OVCAR-4 ovarian) | TGI (SF-295 CNS) | TGI (NCI-H226 lung) | TGI (NCI-H23 lung) | TGI (HOP-92 NSCLC) | TGI (NCI-H522 lung) | TGI (SK-OV-3 ovarian) | TGI (MDA-MB-435) | TGI (MALME-3M melanoma) | TGI (MDA-MB-231 breast) | TGI (ACHN renal) | TGI (OVCAR-5 ovarian) | TGI (UACC-62 melanoma) | TGI (A549 NSCLC) | TGI (U251 CNS)
78 µM: TGI (MOLT-4 leukemia)
inactive: GI50 (OVCAR-3 ovarian) 23.7 µM | GI50 (NCI-H460 lung) 96.1 µM | GI50 (DU-145 prostate) > 100 µM | GI50 (RXF 393 renal) 3.06 µM | GI50 (SF-268 CNS) 36.7 µM | GI50 (UO-31 renal) 22.6 µM | GI50 (MCF7 breast) 22.6 µM | GI50 (MOLT-4 leukemia) 0.542 µM | GI50 (M14 melanoma) 23.7 µM | GI50 (COLO 205 colon) 41.6 µM | GI50 (SK-MEL-28 melanoma) 89.1 µM | GI50 (SF-539 CNS) > 100 µM | GI50 (NCI/ADR-RES ovarian) 12 µM | GI50 (IGROV1 ovarian) 63.5 µM | GI50 (LOX IMVI melanoma) > 100 µM | GI50 (SNB-75 CNS) 1.9 µM | GI50 (HS 578T breast) 16 µM | GI50 (HCC-2998 colon) 74 µM | GI50 (SW-620 colon) > 100 µM | GI50 (HOP-62 NSCLC) 4.7 µM | GI50 (CCRF-CEM leukemia) 34.7 µM | GI50 (SN12C renal) 61.8 µM | GI50 (KM12 colon) 36.8 µM | GI50 (SK-MEL-2 melanoma) 9.91 µM | GI50 (BT-549 breast) 1.15 µM | GI50 (TK-10 renal) 22.4 µM | GI50 (SNB-19 CNS) > 100 µM | GI50 (CAKI-1 renal) 73.3 µM | GI50 (HL-60(TB) leukemia) 19.5 µM | GI50 (HT29 colon) > 100 µM | GI50 (OVCAR-8 ovarian) 11.9 µM | GI50 (HCT-116 colon) 7.32 µM | GI50 (T-47D breast) 0.566 µM | GI50 (786-0 renal) 40.5 µM | GI50 (OVCAR-4 ovarian) 12.3 µM | GI50 (SF-295 CNS) 18 µM | GI50 (NCI-H226 lung) 11 µM | GI50 (NCI-H23 lung) 32.2 µM | GI50 (HOP-92 NSCLC) 0.609 µM | GI50 (NCI-H522 lung) 1.32 µM | GI50 (SK-OV-3 ovarian) 6.23 µM | GI50 (MDA-MB-435) 24.3 µM | GI50 (MALME-3M melanoma) 15.2 µM | GI50 (MDA-MB-231 breast) 4.24 µM | GI50 (ACHN renal) 11.9 µM | GI50 (OVCAR-5 ovarian) > 100 µM | GI50 (UACC-62 melanoma) 3.26 µM | GI50 (A549 NSCLC) 20.4 µM | GI50 (U251 CNS) 19.2 µM
21 µM: TGI (SK-MEL-5 melanoma)
active: GI50 (RPMI-8226 leukemia) 0.013 µM | GI50 (UACC-257 melanoma) 0.403 µM | GI50 (K-562 leukemia) 0.36 µM | GI50 (SK-MEL-5 melanoma) 0.077 µM
9.09 µM: TGI (SNB-75 CNS)

C=C(C)[C@@H]1CC[C@]2(CN)CC[C@]3(C)[C@H](CC[C@@H]4[C@@]5(C)CCCNC(C)(C)[C@@H]5CC[C@]43C)[C@@H]12
3.52 µM: TGI (TK-10 renal) | TGI (MDA-MB-231 breast)
3.05 µM: TGI (UO-31 renal) | TGI (SW-620 colon)
2.49 µM: TGI (HCT-15 colon)
3.31 µM: TGI (SN12C renal)
3.8 µM: TGI (NCI-H226 lung)
3 µM: TGI (SK-MEL-5 melanoma)
3.3 µM: TGI (NCI-H23 lung)
2.91 µM: TGI (COLO 205 colon)
2.96 µM: TGI (HCT-116 colon)
3.81 µM: TGI (T-47D breast)
inactive: GI50 (NCI-H460 lung) 1.24 µM | GI50 (DU-145 prostate) 1.59 µM | GI50 (RXF 393 renal) 1.75 µM | GI50 (UO-31 renal) 1.56 µM | GI50 (MCF7 breast) 1.27 µM | GI50 (PC-3 prostate) 1.77 µM | GI50 (MOLT-4 leukemia) 1.93 µM | GI50 (M14 melanoma) 1.69 µM | GI50 (COLO 205 colon) 1.4 µM | GI50 (SK-MEL-28 melanoma) 1.74 µM | GI50 (SF-539 CNS) 1.62 µM | GI50 (UACC-257 melanoma) 2.09 µM | GI50 (IGROV1 ovarian) 1.82 µM | GI50 (SNB-75 CNS) 1.63 µM | GI50 (HS 578T breast) 1.8 µM | GI50 (SW-620 colon) 1.53 µM | GI50 (HOP-62 NSCLC) 1.93 µM | GI50 (CCRF-CEM leukemia) 2.27 µM | GI50 (SN12C renal) 1.75 µM | GI50 (SK-MEL-2 melanoma) 2.11 µM | GI50 (EKVX NSCLC) 1.77 µM | GI50 (TK-10 renal) 1.86 µM | GI50 (CAKI-1 renal) 1.66 µM | GI50 (HCT-116 colon) 1.42 µM | GI50 (T-47D breast) 1.88 µM | GI50 (786-0 renal) 1.74 µM | GI50 (HCT-15 colon) 1.19 µM | GI50 (A498 renal) 1.5 µM | GI50 (SF-295 CNS) 1.78 µM | GI50 (NCI-H226 lung) 1.88 µM | GI50 (NCI-H23 lung) 1.7 µM | GI50 (SK-MEL-5 melanoma) 1.56 µM | GI50 (HOP-92 NSCLC) 1.69 µM | GI50 (SK-OV-3 ovarian) 1.82 µM | GI50 (MDA-MB-435) 1.6 µM | GI50 (MALME-3M melanoma) 1.75 µM | GI50 (MDA-MB-231 breast) 1.79 µM | GI50 (ACHN renal) 1.77 µM | GI50 (OVCAR-5 ovarian) 1.59 µM | GI50 (UACC-62 melanoma) 1.87 µM | GI50 (A549 NSCLC) 1.95 µM | GI50 (U251 CNS) 1.8 µM
3.38 µM: TGI (SK-MEL-28 melanoma)
2.92 µM: TGI (A498 renal)
3.2 µM: TGI (PC-3 prostate)
3.88 µM: TGI (SK-MEL-2 melanoma)
2.7 µM: TGI (MCF7 breast)
2.97 µM: TGI (DU-145 prostate)
3.29 µM: TGI (SF-295 CNS)
3.28 µM: TGI (HOP-92 NSCLC)
3.33 µM: TGI (U251 CNS)
3.39 µM: TGI (EKVX NSCLC)
3.71 µM: TGI (A549 NSCLC)
3.19 µM: TGI (ACHN renal)
3.18 µM: TGI (M14 melanoma)
3.02 µM: TGI (CAKI-1 renal)
3.57 µM: TGI (IGROV1 ovarian) | TGI (786-0 renal)
3.49 µM: TGI (RXF 393 renal)
3.09 µM: TGI (SF-539 CNS)
2.98 µM: TGI (MDA-MB-435)
4.35 µM: TGI (UACC-257 melanoma)
3.4 µM: TGI (SK-OV-3 ovarian)
4.47 µM: TGI (MOLT-4 leukemia)
3.73 µM: TGI (HOP-62 NSCLC)
2.67 µM: TGI (NCI-H460 lung)
4 µM: TGI (HS 578T breast)
3.63 µM: TGI (MALME-3M melanoma)
4.92 µM: TGI (CCRF-CEM leukemia)
3.42 µM: TGI (UACC-62 melanoma)
3.11 µM: TGI (SNB-75 CNS) | TGI (OVCAR-5 ovarian)
